Reference: PubChem BioAssay AID1671247

Biological target: Casein kinase I isoform gamma-2 (Homo sapiens) (UniProt P78368)
Assay: PubChem AID 1671247
Conditions: Z'-LYTE FRET kinase activity assay

Sequence of Casein kinase I isoform gamma-2 (Homo sapiens) (P78368 whole entry, looked up, canonical isoform): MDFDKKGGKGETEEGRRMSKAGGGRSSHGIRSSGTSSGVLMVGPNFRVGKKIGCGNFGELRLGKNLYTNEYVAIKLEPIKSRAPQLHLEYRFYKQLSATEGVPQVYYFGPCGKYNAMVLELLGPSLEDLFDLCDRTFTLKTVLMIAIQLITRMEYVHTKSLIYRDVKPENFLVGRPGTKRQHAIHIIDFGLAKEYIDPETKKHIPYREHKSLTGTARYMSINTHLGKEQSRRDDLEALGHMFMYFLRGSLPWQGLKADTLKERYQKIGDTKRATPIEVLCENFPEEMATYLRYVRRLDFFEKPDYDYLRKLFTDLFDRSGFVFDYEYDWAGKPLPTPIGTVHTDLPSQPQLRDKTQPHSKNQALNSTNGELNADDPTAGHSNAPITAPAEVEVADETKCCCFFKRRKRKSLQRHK

- IC50: 26.5 µM
Compound: Brc1c(Br)c(Br)c2n[nH]nc2c1Br
